Experiments:
[1] = tested on: Tyrosine-protein kinase ABL1 (Homo sapiens), P00519 [T315I]; assay: Selectivity interaction (KinomeScan (DiscoverX)) EUB0000607a ABL1; details: at 10 µM
[2] = biological target: Ribosomal protein S6 kinase alpha-1 (Homo sapiens, UniProt Q15418); assay: Selectivity interaction (ActivX KiNativ screen (kinase selectivity in THP-1 cell lysates)) EUB0000639a RPS6KA1; type: subcellular; details: lysate, at 1 µM
[3] = biological target: Rho-associated protein kinase 2 (Homo sapiens, UniProt O75116); assay: Selectivity interaction (KinomeScan (DiscoverX)) EUB0000695a ROCK2; details: at 100 nM
Sequence of Rho-associated protein kinase 2 (O75116 whole entry, looked up): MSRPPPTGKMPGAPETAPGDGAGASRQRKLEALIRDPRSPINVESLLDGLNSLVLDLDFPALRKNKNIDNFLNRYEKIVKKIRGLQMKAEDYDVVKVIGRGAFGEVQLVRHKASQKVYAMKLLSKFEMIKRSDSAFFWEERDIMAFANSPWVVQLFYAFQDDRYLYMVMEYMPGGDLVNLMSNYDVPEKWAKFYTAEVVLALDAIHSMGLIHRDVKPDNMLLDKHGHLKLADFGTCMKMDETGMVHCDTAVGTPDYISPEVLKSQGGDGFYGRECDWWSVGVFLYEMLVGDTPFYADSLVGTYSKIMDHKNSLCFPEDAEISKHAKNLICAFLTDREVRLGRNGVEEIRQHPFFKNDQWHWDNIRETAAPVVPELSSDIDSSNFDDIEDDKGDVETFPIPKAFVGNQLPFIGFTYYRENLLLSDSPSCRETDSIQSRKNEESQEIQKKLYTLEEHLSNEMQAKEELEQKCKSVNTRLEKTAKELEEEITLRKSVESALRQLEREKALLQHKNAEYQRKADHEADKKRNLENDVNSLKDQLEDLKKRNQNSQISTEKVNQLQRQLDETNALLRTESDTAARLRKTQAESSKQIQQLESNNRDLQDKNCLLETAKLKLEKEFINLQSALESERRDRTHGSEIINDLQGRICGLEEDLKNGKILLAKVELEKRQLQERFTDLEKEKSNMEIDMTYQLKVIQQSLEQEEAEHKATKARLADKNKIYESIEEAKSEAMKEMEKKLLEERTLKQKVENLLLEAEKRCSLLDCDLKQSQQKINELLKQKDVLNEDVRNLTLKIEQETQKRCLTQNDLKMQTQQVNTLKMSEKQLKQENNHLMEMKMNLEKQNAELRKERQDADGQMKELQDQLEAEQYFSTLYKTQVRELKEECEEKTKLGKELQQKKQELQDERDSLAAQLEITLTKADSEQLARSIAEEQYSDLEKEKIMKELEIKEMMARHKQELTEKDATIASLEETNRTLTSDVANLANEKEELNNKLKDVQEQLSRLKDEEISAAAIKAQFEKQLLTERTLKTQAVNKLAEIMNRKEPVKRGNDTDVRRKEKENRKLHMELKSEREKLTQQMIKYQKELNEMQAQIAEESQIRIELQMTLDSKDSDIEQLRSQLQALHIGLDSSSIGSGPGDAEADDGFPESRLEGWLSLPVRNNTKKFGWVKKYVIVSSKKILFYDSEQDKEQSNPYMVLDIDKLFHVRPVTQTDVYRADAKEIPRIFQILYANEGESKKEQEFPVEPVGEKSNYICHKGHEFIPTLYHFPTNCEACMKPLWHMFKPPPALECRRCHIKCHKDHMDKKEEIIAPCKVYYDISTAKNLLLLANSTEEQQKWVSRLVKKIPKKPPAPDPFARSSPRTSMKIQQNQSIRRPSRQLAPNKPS

[4] = biological target: Dual specificity protein kinase CLK4 (Homo sapiens, UniProt Q9HAZ1); assay: Selectivity interaction (KinomeScan (DiscoverX)) EUB0000655a CLK4; details: at 10 µM
Sequence of Dual specificity protein kinase CLK4 (Q9HAZ1 whole entry, looked up): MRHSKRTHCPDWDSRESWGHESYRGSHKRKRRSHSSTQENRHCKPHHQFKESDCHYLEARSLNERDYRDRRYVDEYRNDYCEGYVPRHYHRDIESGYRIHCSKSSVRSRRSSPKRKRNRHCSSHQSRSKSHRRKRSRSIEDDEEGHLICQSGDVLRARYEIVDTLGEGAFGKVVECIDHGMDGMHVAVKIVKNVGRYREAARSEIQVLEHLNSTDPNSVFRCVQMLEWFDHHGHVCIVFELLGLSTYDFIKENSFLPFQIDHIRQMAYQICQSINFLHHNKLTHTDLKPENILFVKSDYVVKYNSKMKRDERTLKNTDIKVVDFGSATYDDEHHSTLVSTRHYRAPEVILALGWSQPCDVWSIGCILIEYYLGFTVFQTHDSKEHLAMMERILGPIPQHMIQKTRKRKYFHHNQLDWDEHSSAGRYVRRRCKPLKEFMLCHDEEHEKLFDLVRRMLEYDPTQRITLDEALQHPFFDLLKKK

[5] = biological target: Death-associated protein kinase 1 (Homo sapiens, UniProt P53355); assay: Selectivity interaction (KinomeScan (DiscoverX)) EUB0001079a DAPK1; details: at 1 µM
Sequence of Death-associated protein kinase 1 (P53355 whole entry, looked up): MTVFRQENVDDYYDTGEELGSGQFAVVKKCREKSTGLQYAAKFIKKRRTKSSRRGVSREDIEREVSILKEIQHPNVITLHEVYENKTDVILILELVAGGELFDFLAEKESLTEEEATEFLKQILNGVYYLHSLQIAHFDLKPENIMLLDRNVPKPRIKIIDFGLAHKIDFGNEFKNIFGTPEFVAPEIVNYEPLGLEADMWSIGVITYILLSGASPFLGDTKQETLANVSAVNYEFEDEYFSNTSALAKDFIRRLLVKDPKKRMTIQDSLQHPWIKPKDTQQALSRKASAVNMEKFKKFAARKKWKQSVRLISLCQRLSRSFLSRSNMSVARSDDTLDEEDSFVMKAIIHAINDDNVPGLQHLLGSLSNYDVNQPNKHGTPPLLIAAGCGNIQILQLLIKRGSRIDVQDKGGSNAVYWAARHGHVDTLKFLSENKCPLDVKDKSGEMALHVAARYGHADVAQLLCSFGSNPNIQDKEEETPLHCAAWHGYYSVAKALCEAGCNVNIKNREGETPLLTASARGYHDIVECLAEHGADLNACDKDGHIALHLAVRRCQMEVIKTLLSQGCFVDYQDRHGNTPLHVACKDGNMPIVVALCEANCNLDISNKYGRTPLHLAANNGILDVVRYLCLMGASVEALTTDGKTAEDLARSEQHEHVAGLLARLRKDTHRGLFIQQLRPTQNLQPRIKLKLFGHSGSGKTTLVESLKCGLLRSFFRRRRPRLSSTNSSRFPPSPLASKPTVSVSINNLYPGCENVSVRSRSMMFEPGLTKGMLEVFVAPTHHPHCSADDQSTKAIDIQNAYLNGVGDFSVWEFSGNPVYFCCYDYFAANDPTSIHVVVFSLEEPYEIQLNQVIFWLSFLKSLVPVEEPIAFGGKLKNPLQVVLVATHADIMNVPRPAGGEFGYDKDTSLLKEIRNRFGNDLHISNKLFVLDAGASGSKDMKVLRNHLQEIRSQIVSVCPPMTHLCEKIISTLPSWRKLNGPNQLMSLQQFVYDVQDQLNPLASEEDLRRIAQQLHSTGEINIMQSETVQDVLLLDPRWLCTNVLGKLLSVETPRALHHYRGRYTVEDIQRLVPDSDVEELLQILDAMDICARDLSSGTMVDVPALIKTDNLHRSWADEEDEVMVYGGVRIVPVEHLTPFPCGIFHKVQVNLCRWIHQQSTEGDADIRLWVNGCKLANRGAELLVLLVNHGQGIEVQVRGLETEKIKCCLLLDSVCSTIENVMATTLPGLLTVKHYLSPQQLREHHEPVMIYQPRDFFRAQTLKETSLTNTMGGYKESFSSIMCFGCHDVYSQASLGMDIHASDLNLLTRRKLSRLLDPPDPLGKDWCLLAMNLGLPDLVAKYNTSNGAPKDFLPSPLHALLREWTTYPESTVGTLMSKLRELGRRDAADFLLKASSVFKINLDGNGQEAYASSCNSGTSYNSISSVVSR

[6] = biological target: T1, Receptor-interacting serine/threonine-protein kinase 4 (Homo sapiens) (UniProt P57078); assay: Selectivity interaction (KinomeScan (DiscoverX)) EUB0001079a RIPK4; details: at 1 µM
T1 sequence (whole entry): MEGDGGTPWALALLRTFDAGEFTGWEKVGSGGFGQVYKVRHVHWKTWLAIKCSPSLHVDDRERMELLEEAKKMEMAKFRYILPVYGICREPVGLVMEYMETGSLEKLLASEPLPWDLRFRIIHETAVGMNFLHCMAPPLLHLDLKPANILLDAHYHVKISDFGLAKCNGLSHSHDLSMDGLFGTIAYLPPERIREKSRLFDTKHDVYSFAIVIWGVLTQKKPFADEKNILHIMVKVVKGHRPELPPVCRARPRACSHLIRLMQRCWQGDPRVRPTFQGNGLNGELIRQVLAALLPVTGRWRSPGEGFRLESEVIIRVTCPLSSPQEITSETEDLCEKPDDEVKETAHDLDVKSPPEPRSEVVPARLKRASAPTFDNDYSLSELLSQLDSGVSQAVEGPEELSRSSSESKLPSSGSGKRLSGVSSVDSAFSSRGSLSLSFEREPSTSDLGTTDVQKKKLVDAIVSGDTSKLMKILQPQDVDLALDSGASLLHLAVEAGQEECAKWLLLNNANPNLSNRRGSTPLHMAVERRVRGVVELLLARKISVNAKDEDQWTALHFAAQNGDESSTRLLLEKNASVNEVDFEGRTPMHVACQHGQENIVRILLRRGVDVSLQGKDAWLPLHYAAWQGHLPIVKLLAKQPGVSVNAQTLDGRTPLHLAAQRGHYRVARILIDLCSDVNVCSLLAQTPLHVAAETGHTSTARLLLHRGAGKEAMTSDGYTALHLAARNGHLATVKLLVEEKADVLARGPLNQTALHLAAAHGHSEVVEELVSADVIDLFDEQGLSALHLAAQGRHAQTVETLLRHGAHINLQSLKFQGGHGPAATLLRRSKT

[7] = biological target: T2, Hormonally up-regulated neu tumor-associated kinase (Homo sapiens) (UniProt P57058); assay: Selectivity interaction (KinomeScan (DiscoverX)) EUB0000618a HUNK; details: at 10 µM
T2 sequence (whole entry): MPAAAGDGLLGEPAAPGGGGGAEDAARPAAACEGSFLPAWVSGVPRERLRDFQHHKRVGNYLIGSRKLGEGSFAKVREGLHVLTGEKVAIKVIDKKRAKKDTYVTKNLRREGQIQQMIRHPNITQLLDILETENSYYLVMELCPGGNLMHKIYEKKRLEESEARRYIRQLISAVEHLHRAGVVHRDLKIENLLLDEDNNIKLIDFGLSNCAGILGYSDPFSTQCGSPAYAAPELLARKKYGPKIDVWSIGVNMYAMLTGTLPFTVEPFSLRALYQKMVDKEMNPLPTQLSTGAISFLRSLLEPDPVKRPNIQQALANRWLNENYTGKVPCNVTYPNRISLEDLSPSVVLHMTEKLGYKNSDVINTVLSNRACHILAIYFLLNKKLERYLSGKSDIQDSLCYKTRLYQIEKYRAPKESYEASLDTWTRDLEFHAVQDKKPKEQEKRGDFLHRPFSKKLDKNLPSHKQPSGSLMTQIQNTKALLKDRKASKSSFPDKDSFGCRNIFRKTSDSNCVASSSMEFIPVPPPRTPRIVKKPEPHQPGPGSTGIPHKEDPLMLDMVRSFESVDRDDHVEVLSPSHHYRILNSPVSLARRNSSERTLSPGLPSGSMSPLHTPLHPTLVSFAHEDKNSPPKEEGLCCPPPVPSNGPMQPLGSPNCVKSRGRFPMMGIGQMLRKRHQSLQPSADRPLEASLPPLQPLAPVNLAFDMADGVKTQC

[8] = biological target: Mitogen-activated protein kinase 6 (Homo sapiens) (UniProt Q16659); assay: Selectivity interaction (KinomeScan (DiscoverX)) EUB0001619a MAPK6; details: at 1 µM
Sequence of Mitogen-activated protein kinase 6 (Homo sapiens) (Q16659 whole entry): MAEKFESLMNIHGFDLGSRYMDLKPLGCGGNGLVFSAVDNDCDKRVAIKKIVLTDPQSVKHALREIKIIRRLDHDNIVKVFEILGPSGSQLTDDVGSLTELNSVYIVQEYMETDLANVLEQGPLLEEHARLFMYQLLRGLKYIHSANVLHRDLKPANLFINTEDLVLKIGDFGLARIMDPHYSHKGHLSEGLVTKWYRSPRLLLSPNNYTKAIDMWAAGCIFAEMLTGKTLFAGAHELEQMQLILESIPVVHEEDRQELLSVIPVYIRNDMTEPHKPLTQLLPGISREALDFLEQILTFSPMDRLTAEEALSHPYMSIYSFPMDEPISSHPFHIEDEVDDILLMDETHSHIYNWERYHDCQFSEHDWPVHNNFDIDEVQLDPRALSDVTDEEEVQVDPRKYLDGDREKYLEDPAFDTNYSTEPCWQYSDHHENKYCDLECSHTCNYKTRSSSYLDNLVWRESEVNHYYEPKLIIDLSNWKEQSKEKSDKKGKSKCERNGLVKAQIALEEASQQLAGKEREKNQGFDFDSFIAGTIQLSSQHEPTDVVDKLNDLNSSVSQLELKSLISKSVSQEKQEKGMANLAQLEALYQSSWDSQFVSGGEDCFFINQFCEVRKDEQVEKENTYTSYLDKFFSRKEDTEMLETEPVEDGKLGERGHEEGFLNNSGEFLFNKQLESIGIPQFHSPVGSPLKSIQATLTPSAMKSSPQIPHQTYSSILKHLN

[9] = biological target: Serine/threonine-protein kinase Nek7 (Homo sapiens) (UniProt Q8TDX7); assay: Selectivity interaction (ActivX KiNativ screen (ex vivo kinase selectivity in human PBMCs)) EUB0001619a NEK7; type: cell-based; details: PBMC, at 1 µM
Sequence of Serine/threonine-protein kinase Nek7 (Homo sapiens) (Q8TDX7 whole entry, looked up): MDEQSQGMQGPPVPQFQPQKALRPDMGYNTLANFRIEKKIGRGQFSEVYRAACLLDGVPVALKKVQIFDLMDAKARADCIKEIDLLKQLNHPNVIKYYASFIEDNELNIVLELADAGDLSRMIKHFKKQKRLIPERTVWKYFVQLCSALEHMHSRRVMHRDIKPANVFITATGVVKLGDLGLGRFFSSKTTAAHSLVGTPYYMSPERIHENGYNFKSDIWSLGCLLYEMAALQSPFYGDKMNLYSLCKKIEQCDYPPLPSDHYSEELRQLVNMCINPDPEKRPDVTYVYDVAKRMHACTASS

Sequence of Ribosomal protein S6 kinase alpha-1 (Q15418 whole entry): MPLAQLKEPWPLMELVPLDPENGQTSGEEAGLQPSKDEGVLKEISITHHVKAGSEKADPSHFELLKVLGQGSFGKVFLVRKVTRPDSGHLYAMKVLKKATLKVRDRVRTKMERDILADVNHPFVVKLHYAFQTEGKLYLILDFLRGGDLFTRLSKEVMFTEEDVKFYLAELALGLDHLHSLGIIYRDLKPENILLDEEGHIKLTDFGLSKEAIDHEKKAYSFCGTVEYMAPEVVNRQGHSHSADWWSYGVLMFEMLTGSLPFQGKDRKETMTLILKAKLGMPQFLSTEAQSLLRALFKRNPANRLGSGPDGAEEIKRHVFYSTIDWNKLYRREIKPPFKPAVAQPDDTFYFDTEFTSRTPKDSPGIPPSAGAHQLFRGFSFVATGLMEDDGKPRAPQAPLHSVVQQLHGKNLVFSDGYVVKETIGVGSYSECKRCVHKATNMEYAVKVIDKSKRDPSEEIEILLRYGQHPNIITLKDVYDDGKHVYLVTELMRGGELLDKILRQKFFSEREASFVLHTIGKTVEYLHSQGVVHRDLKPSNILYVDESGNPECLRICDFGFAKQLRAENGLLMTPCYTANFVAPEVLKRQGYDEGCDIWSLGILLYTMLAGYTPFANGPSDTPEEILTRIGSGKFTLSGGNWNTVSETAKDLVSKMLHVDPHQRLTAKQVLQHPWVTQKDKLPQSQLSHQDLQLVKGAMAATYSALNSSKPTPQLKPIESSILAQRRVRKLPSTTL

**Q.** For `CNC(=O)Nc1ccc(-c2nc(N3CC4CCC(C3)O4)c3cnn(C4CCC5(CC4)OCCO5)c3n2)cc1`, which % of control [1] is on record?
**A.** The % of control was 80%.

**Q.** Which % of inhibition [2] does the source give for `CC[C@@H]1[C@H](F)C(=O)N[C@@H]1COc1nccc2cc(C(N)=O)c(OC)cc12` [ZIMLOVISERTIB] here?
**A.** The % of inhibition was -3.5%.

**Q.** `Cc1cc(F)c(C(=O)Nc2cccc(-c3nncn3C(C)C)n2)cc1-n1cnc(C2CC2)c1` was tested. Which % of control [3] did it give?
**A.** The % of control was 81%.

**Q.** Which % of control [4] does the source give for `CN(C)CCOc1ccc(-c2nc(-c3ccncc3)c(-c3ccc4c(c3)CC/C4=N\O)[nH]2)cc1` here?
**A.** The % of control was 68%.

**Q.** Which % of control [5] does the source give for `Nc1cnc(N2CCc3cc(S(=O)(=O)Nc4c(F)cc(Cl)cc4F)cc(N4CCCC4=O)c32)nc1` [TP-020n] here?
**A.** Its % of control is 100%.

**Q.** And the % of control [6]?
**A.** Its % of control is 76%.

**Q.** Which % of control [7] does the source give for `O[C@H]1CC[C@H](Nc2ncc3nc(Nc4c(F)cc(F)cc4F)n([C@H]4CCOC4)c3n2)CC1` here?
**A.** The % of control was 89%.

**Q.** Which results are given for `N#Cc1cccc(-c2c[nH]c3ncnc(N4CCOCC4)c23)c1`?
**A.** % of control [8]: 100%; % of inhibition [9]: 7%

From ChEMBL document CHEMBL5465560, “Selectivity Literature for EUbOPEN Chemogenomic Library” (2024)
